Data: PMC5467235, “Variation in auxin sensing guides AUX/IAA transcriptional repressor ubiquitylation and destruction” (Nature Communications, 2017)
Where a chain is given by its changes, count along the chain named.

Columns and labels:
[1] = biological target: T1, AFB2-IAA6 (yeast two-hybrid) (Arabidopsis thaliana, UniProt Q38824+Q9LW29); assay: yeast two-hybrid, beta-galactosidase reporter; type: cell-based; details: auxin-dependent association in yeast; low micromolar IAA
T1 construct: LexA DBD-AFB2 and AD-IAA6 fusions in yeast diploids
T1 sequence (Q9LW29 1-575): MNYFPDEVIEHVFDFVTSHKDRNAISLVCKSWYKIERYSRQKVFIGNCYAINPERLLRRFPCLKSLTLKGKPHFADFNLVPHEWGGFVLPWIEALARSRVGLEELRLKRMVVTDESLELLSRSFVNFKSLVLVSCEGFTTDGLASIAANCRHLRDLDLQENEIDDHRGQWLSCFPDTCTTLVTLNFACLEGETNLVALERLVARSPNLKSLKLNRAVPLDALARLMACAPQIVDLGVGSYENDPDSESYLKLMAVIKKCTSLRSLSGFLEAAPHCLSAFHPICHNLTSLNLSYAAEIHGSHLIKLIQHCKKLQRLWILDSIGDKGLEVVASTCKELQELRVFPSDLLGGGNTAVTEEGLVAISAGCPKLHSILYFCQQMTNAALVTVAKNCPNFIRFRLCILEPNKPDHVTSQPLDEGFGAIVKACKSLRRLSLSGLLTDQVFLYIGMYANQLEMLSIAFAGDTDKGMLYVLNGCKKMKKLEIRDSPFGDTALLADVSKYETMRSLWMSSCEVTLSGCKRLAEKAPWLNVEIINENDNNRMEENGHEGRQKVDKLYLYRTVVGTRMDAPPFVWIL
T1 sequence (Q38824 1-189): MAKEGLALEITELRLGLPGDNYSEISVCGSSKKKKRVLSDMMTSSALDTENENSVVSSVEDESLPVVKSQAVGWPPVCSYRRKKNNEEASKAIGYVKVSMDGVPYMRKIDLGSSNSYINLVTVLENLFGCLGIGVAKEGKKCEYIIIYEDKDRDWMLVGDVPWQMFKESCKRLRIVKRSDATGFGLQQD

[2] = biological target: T2, ASK1-TIR1-IAA19 co-receptor complex (TIR1-IAA19) (Arabidopsis thaliana, UniProt O24409+Q570C0); assay: homologous competition radioligand binding
T2 construct: ASK1-TIR1 from insect cells (Sf9 or Hi5), purified; IAA19 N-terminally GST-tagged from E. coli, full length; with SKP1-like protein 1A
T2 sequence (Q570C0 1-594): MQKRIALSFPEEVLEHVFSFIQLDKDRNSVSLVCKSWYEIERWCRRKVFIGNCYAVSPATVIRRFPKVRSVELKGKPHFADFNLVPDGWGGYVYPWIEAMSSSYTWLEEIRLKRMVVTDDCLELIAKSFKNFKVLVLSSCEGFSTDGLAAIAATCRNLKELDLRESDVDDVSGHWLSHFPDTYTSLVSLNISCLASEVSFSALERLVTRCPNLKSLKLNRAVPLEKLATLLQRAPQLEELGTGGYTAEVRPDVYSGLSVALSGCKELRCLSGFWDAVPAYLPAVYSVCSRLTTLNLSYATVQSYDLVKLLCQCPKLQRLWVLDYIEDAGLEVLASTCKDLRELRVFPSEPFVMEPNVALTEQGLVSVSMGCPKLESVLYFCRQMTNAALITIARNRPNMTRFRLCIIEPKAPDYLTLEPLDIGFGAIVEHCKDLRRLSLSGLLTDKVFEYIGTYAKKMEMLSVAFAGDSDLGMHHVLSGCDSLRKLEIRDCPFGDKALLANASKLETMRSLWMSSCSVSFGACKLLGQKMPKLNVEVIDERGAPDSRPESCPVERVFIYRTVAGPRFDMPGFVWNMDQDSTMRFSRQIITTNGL
T2 sequence (O24409 1-197): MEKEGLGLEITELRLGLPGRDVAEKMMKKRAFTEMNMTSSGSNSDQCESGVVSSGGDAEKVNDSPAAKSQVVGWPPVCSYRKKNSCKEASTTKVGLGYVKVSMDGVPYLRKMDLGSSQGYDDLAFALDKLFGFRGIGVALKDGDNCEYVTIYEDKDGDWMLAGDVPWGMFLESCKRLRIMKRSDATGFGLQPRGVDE
T2 sequence (Q39255 1-160 partner): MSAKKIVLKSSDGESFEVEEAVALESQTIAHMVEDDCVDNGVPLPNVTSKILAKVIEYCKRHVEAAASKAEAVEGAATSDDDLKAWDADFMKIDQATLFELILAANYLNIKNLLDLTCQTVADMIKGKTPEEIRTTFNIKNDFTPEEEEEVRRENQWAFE

[3] = biological target: T3, ASK1-TIR1-IAA6 co-receptor complex (TIR1-IAA6) (Arabidopsis thaliana, UniProt Q38824+Q570C0); assay: homologous competition radioligand binding; details: unlabelled IAA against 50 nM [3H]IAA
T3 construct: ASK1-TIR1 from insect cells (Sf9 or Hi5), purified; IAA6 N-terminally GST-tagged from E. coli, full length; with SKP1-like protein 1A
T3 sequence (Q570C0 1-594): T2 sequence (Q570C0 1-594)
T3 sequence (Q38824 1-189): T1 sequence (Q38824 1-189)
T3 sequence (Q39255 1-160 partner): T2 sequence (Q39255 1-160 partner)

[4] = biological target: T4, AFB1-IAA6 (yeast two-hybrid) (Arabidopsis thaliana, UniProt Q38824+Q9ZR12); assay: yeast two-hybrid, beta-galactosidase reporter; type: cell-based; details: auxin-dependent association in yeast; low micromolar IAA
T4 construct: gene GRH1; LexA DBD-AFB1 and AD-IAA6 fusions in yeast diploids
T4 sequence (Q9ZR12 1-585): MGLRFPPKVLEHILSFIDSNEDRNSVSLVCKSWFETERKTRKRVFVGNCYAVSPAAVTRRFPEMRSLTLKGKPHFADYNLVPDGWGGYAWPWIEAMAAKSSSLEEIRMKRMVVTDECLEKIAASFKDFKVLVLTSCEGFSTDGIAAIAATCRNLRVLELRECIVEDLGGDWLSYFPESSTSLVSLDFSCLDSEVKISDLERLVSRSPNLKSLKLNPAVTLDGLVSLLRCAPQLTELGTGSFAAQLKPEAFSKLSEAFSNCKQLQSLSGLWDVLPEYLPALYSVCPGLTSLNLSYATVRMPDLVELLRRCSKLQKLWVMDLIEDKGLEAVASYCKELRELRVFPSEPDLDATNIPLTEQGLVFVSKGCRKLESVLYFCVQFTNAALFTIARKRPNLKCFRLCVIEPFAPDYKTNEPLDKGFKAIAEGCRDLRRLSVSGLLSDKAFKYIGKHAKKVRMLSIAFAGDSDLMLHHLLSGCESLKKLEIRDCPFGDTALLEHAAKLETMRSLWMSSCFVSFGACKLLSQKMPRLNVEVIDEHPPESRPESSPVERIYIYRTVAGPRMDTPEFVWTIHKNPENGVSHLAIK
T4 sequence (Q38824 1-189): T1 sequence (Q38824 1-189)

[5] = biological target: T5, AFB2-IAA19 (yeast two-hybrid) (Arabidopsis thaliana, UniProt O24409+Q9LW29); assay: yeast two-hybrid, beta-galactosidase reporter; type: cell-based; details: auxin-dependent association in yeast; low micromolar IAA
T5 construct: LexA DBD-AFB2 and AD-IAA19 fusions in yeast diploids
T5 sequence (Q9LW29 1-575): T1 sequence (Q9LW29 1-575)
T5 sequence (O24409 1-197): T2 sequence (O24409 1-197)

[6] = biological target: T2, ASK1-TIR1-IAA19 co-receptor complex (TIR1-IAA19); assay: [3H]IAA saturation radioligand binding
[7] = biological target: T6, AFB1-IAA19 (yeast two-hybrid) (Arabidopsis thaliana, UniProt O24409+Q9ZR12); assay: yeast two-hybrid, beta-galactosidase reporter; type: cell-based; details: auxin-dependent association in yeast; low micromolar IAA
T6 construct: gene GRH1; LexA DBD-AFB1 and AD-IAA19 fusions in yeast diploids
T6 sequence (Q9ZR12 1-585): T4 sequence (Q9ZR12 1-585)
T6 sequence (O24409 1-197): T2 sequence (O24409 1-197)

[8] = biological target: T7, ASK1-TIR1-IAA6 co-receptor complex (TIR1-IAA6) (Arabidopsis thaliana, UniProt Q38824+Q570C0, Q38824:C78R); assay: one-point [3H]IAA saturation binding; details: labelled compound; 200 nM [3H]IAA; shy1-1 degron mutant
T7 construct: ASK1-TIR1 from insect cells (Sf9 or Hi5), purified; IAA6 N-terminally GST-tagged from E. coli, full length; with SKP1-like protein 1A
T7 sequence (Q570C0 1-594): T2 sequence (Q570C0 1-594)
T7 sequence (Q38824 1-189 C78R): T1 sequence (Q38824 1-189) with C78R
T7 sequence (Q39255 1-160 partner): T2 sequence (Q39255 1-160 partner)

[9] = biological target: T3, ASK1-TIR1-IAA6 co-receptor complex (TIR1-IAA6); assay: homologous competition radioligand binding
[10] = biological target: T3, ASK1-TIR1-IAA6 co-receptor complex (TIR1-IAA6); assay: [3H]IAA saturation radioligand binding
[11] = biological target: T2, ASK1-TIR1-IAA19 co-receptor complex (TIR1-IAA19); assay: homologous competition radioligand binding; details: unlabelled IAA against 25 nM [3H]IAA
[12] = biological target: T8, ASK1-TIR1-IAA19 co-receptor complex (TIR1-IAA19) (Arabidopsis thaliana, UniProt O24409+Q570C0, O24409:P76S); assay: one-point [3H]IAA saturation binding; details: labelled compound; 200 nM [3H]IAA; msg2-1 degron mutant
T8 construct: ASK1-TIR1 from insect cells (Sf9 or Hi5), purified; IAA19 N-terminally GST-tagged from E. coli, full length; with SKP1-like protein 1A
T8 sequence (Q570C0 1-594): T2 sequence (Q570C0 1-594)
T8 sequence (O24409 1-197 P76S): T2 sequence (O24409 1-197) with P76S
T8 sequence (Q39255 1-160 partner): T2 sequence (Q39255 1-160 partner)

Ki [2]: 33.5 ± 3.7 nM
Kd [6]: 15.6 ± 2 nM
Ki [9]: 99.3 ± 11.9 nM
Kd [10]: 72 ± 10.5 nM
Compound: O=C(O)Cc1c[nH]c2ccccc12 [IAA]
yeast two-hybrid, beta-galactosidase reporter [1]: IAA6 and IAA19 interacted in an auxin-dependent manner with TIR1, AFB1 and AFB2
IC50 [3]: determined IC50 and Ki values for each of the complexes
yeast two-hybrid, beta-galactosidase reporter [4]: IAA6 and IAA19 interacted in an auxin-dependent manner with TIR1, AFB1 and AFB2
yeast two-hybrid, beta-galactosidase reporter [5]: IAA6 and IAA19 interacted in an auxin-dependent manner with TIR1, AFB1 and AFB2
yeast two-hybrid, beta-galactosidase reporter [7]: IAA6 and IAA19 interacted in an auxin-dependent manner with TIR1, AFB1 and AFB2
specific binding at 200 nM [8]: IAA6^C78R/shy1-1 and IAA19^P76S/msg2-1 mutants that mimic stabilized version of the proteins affect significantly
IC50 [11]: determined IC50 and Ki values for each of the complexes
specific binding at 200 nM [12]: IAA6^C78R/shy1-1 and IAA19^P76S/msg2-1 mutants that mimic stabilized version of the proteins affect significantly
